# Results: patent US20170166598A1, “HETEROARYL COMPOUNDS FOR KINASE INHIBITION” (ARIAD PHARMACEUTICALS, INC., priority 2014, published 2017)
# Columns and labels:
# Format in all cases: cell-based
# [1] = target: T1, human EGFR exon 20 insertion ASV (V769_D770insASV) (Homo sapiens, UniProt P00533, INS769ASV); assay: Ba/F3-EGFR-Exon20-ASV cell anti-proliferative assay (CellTiter 96 MTS, 72 h); conditions: Ba/F3-EGFR-Exon20-ASV cells
# T1 construct: expressed in transfected cells; host or cells: Ba/F3 (murine pro-B) cells transduced with lentivirus from pLVX-IRES puro
# Description: (§1) An expression vector, pLVX-IRES puro (Clontech) coding for human EGFR exon 20 insertions NPG (H773_V774insNPG) or ASV (V769_D770insASV), was transfected into HEK293 cells by the Trans-Lentiviral ORF Packaging System (Thermo Scientific), to produce virus encoding EGFR exon 20 insertions. Ba/F3 (DSMZ) cells maintained in RPMI 1640 medium supplemented with 10% fetal bovine serum, 200 μM L-glutamine/l 200 μg/mL penicillin/200 μg/mL streptomycin (Life Technology) and 10 ng/mL IL-3 (R&D system), were infected by EGFR Exon20 virus and subsequently selected by puromycin (Life Technology) selection and IL-3 depletion. […] The anti-proliferative activity of compounds were determined as follows: BaF3-EGFR-Exon20 cells (NPG or ASV) seeded in 96 well plates (2500 cells/well) were treated with test compound (dissolved in DMSO) at a series of concentrations (4-fold dilution, top concentration: 10,000 nM). The plates were incubated for 72 h in a 37° C. incubator with 5% CO2, and the number of viable cells in each well were measured indirectly by CellTiter 96® Aqueous One Solution Cell Proliferation Assay (Promega) This assay is a colorimetric method for determining the number of viable cells through measurement of their metabolic activity by detection of enzymatic conversion of tetrazolium salts into blue formazan derivatives. Reagent (20 μL) was added into each well, and the plates were returned to the incubator for 2 h. The absorbance in each well was then measured at 490 nm using an Envision plate reader (Perkin Elmer).
# [2] = target: T2, human EGFR exon 20 insertion NPG (H773_V774insNPG) (Homo sapiens, UniProt P00533, INS772GNP); assay: Ba/F3-EGFR-Exon20-NPG cell anti-proliferative assay (CellTiter 96 MTS, 72 h); conditions: Ba/F3-EGFR-Exon20-NPG cells
# T2 construct: expressed in transfected cells; host or cells: Ba/F3 (murine pro-B) cells transduced with lentivirus from pLVX-IRES puro
# Description: as §1
# [3] = target: T3, human EGFR E746-A750 deletion and T790M Mutation (Homo sapiens, UniProt P00533, DEL746-750/T790M); assay: Ba/F3-EGFR-Del/T790M cell anti-proliferative assay (CellTiter 96 MTS, 72 h); conditions: Ba/F3-EGFR-Del/T790M cells
# T3 construct: expressed in transfected cells; host or cells: Ba/F3 (murine pro-B) cells transduced with lentivirus from pLVX-IRES puro
# Description: An expression vector, pLVX-IRES puro (Clontech) coding for human EGFR E746-A750 deletion and T790M Mutation, was transfected into HEK293 cells by the Trans-Lentiviral ORF Packaging System (Thermo Scientific), to produce virus encoding EGFR exon 19 deletion and T790M mutations. Ba/F3 (DSMZ) cells maintained in RPMI 1640 medium supplemented with 10% fetal bovine serum, 200 μM L-glutamine/200 μg/mL penicillin/200 μg/mL streptomycin (Life Technology) and 10 ng/mL IL-3 (R&D system), were infected by EGFR E746-A750 deletion and T790M Mutation virus and subsequently selected by puromycin (Life Technology) selection and IL-3 depletion. […] The anti-proliferative activity of compounds was determined as follows: BaF3-EGFR-Del/T790M cells seeded in 96 well plates (2500 cells/well) were treated with test compound (dissolved in DMSO) at a series of concentrations (4-fold dilution, top concentration: 10,000 nM). The plates were incubated for 72 h in a 37° C. incubator with 5% CO2, and the number of viable cells in each well were measured indirectly by CellTiter 96® Aqueous One Solution Cell Proliferation Assay (Promega; this assay is a colorimetric method for determining the number of viable cells through measurement of their metabolic activity by detection of enzymatic conversion of tetrazolium salts into blue formazan derivatives). Reagent (20 μL) was added into each well, and the plates were returned to the incubator for 2 h. The absorbance in each well was then measured at 490 nm using an Envision plate reader (Perkin Elmer).
# [4] = target: T4, Her2 exon 20 YVMA insertion (A775_G776ins YVMA) (Homo sapiens, UniProt P04626, INS775YVMA); assay: Ba/F3-Her2 Exon20 YVMA cell anti-proliferative assay (CellTiter 96 MTS, 72 h); conditions: Ba/F3-Her2 Exon20 YVMA cells
# T4 construct: expressed in transfected cells; host or cells: Ba/F3 (murine pro-B) cells transduced with lentivirus from pLVX-IRES puro
# From the text: A compound's ability in selectively inhibiting Her2 exon 20 YVMA insertion mutations can be assessed using Ba/F3 cells, a murine pro-B cell line, which have been transduced with Her2 Exon20 YVMA insertions. An expression vector, pLVX-IRES puro (Clontech) coding for […] (A775_G776ins YVMA), was transfected into HEK293 cells by the Trans-Lentiviral ORF Packaging System (Thermo Scientific), to produce virus encoding EGFR exon 20 insertions. Ba/F3 (DSMZ) cells maintained in RPMI 1640 medium supplemented with 10% fetal bovine serum, 200 μM L-glutamine/200 μg/mL penicillin/200 μg/mL streptomycin (Life Technology) and 10 ng/mL IL-3 (R&D system), were infected by EGFR Exon20 virus and subsequently selected by puromycin (Life Technology) selection and IL-3 depletion. Ba/F3 cells expressing Her2 Exon20 YVMA insertions (named Ba/F3-Her2 Exon20 YVMA) can proliferate in the absence of IL-3. The anti-proliferative activity of compounds was determined as follows: BaF3-Her2 Exon20 YVMA cells seeded in 96 well plates (2500 cells/well) were treated with test compound (dissolved in DMSO) at a series of concentrations (4-fold dilution, top concentration: 10,000 nM). The plates were incubated for 72 h in a 37° C. incubator with 5% CO2, and the number of viable cells in each well were measured indirectly by CellTiter 96@ Aqueous One Solution Cell Proliferation Assay (Promega; this assay is a colorimetric method for determining the number of viable cells through measurement of their metabolic activity by detection of enzymatic conversion of tetrazolium salts into blue formazan derivatives). Reagent (20 μL) was added into each well, and the plates were returned to the incubator for 2 h. The absorbance in each well was then measured at 490 nm using an Envision plate reader (Perkin Elmer).
# T1 sequence (P00533 with tags, fused parts or gaps INS769ASV): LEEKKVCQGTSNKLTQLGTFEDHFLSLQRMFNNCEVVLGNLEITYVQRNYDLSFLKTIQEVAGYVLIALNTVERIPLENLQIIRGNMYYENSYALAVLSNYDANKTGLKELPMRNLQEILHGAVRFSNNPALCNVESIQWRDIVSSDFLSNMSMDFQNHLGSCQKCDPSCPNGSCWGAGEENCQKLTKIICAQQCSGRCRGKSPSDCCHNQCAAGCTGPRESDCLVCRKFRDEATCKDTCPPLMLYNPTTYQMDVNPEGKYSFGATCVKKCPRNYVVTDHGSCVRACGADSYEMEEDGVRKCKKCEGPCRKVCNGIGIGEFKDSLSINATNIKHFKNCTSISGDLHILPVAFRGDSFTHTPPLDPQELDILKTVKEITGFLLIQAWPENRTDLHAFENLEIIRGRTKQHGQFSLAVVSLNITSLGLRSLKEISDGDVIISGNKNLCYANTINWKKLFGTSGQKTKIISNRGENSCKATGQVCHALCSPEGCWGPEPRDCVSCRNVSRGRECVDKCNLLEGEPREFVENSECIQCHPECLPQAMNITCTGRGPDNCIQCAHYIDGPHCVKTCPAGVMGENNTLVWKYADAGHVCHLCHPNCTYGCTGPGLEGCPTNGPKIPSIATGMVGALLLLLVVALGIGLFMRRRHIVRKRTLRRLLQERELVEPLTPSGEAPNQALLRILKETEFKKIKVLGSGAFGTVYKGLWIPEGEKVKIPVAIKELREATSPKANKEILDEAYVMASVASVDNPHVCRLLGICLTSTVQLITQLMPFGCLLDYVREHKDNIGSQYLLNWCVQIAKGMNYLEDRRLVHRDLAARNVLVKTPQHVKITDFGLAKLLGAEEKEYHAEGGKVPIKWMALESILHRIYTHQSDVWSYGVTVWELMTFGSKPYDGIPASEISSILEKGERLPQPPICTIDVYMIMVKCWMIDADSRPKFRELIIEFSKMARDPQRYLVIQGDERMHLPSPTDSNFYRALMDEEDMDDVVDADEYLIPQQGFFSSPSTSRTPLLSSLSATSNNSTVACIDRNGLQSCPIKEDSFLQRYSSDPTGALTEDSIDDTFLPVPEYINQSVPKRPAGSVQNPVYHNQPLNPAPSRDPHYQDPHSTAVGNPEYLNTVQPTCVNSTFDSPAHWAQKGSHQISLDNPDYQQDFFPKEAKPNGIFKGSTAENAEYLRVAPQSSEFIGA
# T3 sequence (P00533 with tags, fused parts or gaps DEL746-750/T790M): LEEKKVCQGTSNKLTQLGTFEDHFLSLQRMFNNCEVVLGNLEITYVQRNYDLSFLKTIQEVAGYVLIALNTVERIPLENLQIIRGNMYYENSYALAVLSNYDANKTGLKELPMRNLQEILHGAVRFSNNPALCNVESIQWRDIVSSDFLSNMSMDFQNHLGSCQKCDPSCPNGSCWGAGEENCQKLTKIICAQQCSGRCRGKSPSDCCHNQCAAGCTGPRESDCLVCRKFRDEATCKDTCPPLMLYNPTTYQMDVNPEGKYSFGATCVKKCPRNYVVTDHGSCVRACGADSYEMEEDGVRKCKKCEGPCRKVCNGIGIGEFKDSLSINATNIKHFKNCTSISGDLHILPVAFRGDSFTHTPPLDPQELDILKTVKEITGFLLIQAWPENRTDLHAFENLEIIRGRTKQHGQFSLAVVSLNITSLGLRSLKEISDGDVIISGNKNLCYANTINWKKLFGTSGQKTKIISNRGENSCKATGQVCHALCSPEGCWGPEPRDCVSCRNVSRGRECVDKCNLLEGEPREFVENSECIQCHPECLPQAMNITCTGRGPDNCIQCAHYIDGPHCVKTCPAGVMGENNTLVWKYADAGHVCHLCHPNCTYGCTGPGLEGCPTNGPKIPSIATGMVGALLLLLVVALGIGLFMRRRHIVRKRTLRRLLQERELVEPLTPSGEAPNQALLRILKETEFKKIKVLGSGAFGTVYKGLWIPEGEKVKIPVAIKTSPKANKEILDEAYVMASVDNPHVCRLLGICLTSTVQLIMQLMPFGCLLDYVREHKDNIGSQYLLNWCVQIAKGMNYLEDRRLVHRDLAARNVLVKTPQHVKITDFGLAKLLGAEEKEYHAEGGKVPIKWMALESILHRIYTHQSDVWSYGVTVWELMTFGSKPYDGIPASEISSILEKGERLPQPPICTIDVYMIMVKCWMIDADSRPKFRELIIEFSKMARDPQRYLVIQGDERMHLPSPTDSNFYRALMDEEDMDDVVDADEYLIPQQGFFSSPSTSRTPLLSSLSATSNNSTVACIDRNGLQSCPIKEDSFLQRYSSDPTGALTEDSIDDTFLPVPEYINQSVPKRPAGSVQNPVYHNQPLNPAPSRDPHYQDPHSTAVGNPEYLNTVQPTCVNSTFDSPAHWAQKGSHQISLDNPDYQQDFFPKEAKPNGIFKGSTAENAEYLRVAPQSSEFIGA
# T2 sequence (P00533 with tags, fused parts or gaps INS772GNP): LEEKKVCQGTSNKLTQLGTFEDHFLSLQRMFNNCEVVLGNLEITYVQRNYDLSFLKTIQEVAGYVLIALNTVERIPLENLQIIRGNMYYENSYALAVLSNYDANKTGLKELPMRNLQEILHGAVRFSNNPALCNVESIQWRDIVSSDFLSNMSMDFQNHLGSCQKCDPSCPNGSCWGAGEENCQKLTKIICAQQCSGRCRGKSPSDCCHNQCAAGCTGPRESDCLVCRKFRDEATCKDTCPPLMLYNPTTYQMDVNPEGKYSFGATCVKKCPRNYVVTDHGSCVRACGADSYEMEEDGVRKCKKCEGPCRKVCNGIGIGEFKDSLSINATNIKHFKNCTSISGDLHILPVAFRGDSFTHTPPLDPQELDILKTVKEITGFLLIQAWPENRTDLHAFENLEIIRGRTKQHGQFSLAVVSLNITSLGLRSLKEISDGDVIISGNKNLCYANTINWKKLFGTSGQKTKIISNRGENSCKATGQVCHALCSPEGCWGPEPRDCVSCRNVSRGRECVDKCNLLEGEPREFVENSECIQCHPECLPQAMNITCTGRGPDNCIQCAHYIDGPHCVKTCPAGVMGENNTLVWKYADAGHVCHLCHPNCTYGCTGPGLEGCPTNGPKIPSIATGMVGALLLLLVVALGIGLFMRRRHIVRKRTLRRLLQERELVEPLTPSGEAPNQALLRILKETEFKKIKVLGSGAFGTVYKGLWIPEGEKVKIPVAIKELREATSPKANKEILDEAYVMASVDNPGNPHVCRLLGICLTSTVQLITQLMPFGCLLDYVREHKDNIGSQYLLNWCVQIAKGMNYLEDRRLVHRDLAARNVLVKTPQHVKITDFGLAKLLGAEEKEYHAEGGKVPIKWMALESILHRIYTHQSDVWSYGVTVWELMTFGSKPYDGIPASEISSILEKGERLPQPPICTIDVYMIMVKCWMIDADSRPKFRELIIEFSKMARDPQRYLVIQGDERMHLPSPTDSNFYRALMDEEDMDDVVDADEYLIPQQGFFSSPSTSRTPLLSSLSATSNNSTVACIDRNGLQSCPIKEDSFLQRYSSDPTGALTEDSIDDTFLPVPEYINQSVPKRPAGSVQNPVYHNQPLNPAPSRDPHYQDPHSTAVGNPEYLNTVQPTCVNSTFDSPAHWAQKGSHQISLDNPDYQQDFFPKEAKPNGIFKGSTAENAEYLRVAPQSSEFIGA
# T4 sequence (P04626 with tags, fused parts or gaps INS775YVMA): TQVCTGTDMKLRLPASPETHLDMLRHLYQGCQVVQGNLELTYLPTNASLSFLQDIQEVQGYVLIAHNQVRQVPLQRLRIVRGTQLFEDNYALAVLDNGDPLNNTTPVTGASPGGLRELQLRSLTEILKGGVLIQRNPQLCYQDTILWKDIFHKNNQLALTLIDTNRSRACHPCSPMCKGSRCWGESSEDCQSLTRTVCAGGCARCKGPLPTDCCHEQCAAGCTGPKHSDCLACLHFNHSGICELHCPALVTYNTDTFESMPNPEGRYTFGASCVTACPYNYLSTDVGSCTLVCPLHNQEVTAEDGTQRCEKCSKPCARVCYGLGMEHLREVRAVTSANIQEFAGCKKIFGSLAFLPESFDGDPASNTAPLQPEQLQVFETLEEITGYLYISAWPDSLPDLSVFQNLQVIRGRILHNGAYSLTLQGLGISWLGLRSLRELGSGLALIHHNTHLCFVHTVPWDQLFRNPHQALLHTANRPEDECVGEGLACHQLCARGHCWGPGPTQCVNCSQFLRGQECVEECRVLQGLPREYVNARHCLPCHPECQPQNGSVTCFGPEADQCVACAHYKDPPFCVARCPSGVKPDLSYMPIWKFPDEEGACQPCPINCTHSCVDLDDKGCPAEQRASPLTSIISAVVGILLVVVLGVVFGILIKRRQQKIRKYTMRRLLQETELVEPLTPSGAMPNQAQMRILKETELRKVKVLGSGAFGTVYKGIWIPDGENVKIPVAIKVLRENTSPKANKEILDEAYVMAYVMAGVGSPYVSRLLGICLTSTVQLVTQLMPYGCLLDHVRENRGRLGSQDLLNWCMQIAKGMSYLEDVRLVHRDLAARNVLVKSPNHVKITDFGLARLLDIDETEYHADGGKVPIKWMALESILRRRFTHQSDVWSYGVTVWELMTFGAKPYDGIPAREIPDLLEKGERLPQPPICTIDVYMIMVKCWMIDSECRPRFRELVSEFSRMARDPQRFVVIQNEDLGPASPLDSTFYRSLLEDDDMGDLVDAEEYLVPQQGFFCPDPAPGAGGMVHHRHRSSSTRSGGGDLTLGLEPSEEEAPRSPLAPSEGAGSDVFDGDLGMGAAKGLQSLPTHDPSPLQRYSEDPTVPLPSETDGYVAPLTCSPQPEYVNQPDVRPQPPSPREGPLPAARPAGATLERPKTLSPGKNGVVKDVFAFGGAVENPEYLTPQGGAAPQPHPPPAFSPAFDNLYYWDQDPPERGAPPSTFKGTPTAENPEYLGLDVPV
IC50 [1] [nM],IC50 [2] [nM],IC50 [4] [nM],Structure (SMILES),EGFR exon 19 deletion and exon 20 T790M mutation IC50 [3]
< 100,< 100,< 100,"C=CC(=O)Nc1cc(Nc2ncc(CCC#N)c(-c3cn4c5c(cccc35)CCC4)n2)c(OC)cc1N(C)CCN(C)C [Example 41, N-(5-((5-(2-cyanoethyl)-4-(5,6-dihydro-4H-pyrrolo[3,2,1-ij]quinolin-1-ul)pyrimidin-2-yl)amino)-2-((2-(dimethylamino)ethyl)(methyl)amino)-4-methoxyphenyl)acrylamide]",A (IC50 value for the indicated mutant below about 100 nM)
< 100,< 100,< 100,C=CC(=O)Nc1cc(Nc2ncc(C(=O)CC)c(-c3cn4c5c(cccc35)CCC4)n2)c(OC)cc1N(C)CCN(C)C [Example 88],A (IC50 value for the indicated mutant below about 100 nM)
> 1000,> 1000,> 1000,"C=CC(=O)Nc1cc(Nc2ncc(N(C)S(C)(=O)=O)c(-c3cn4c5c(cccc35)CCC4)n2)c(OC)cc1N(C)CCN(C)C [Example 59, N-(5-((4-(5,6-dihydro-4H-pyrrolo[3,2,1-ij]quinolin-1-yl)-5-(N-methylmethylsulfonamido)pyrimidin-2-yl)amino)-2-((2-(dimethylamino)ethyl)(methyl)amino)-4-methoxyphenyl)acrylamide]",D (IC50 value for the indicated mutant greater than about 1 μM)
< 100,< 100,100 to 500,C=CC(=O)Nc1cc(Nc2nccc(-c3c(N4CCCC4)n4c5c(cccc35)CCC4)n2)c(OC)cc1N(C)CCN(C)C [Example 93],A (IC50 value for the indicated mutant below about 100 nM)
< 100,< 100,< 100,"C=CC(=O)Nc1cc(Nc2ncc(C(=O)OC)c(-c3cn4c5c(cccc35)CCC4)n2)c(OC)cc1N(C)CCN(C)C [Example 44, methyl 2-((5-acrylamido-4-((2-(dimethylamino)ethyl)(methyl)amino)-2-methoxyphenyl)amino)-4-(5,6-dihydro-4H-pyrrolo[3,2,1-ij]quinolin-1-yl)pyrimidin-5-carboxylate]",A (IC50 value for the indicated mutant below about 100 nM)
< 100,< 100,< 100,C=CC(=O)Nc1cc(Nc2ncc(-c3cc(C)nn3C)c(-c3cn4c5c(cccc35)CCC4)n2)c(OC)cc1N(C)CCN(C)C [Example 101],A (IC50 value for the indicated mutant below about 100 nM)
100 to 500,< 100,100 to 500,C=CC(=O)Nc1cc(Nc2ncc(C(CC)OC)c(-c3cn4c5c(cccc35)CCC4)n2)c(OC)cc1N(C)CCN(C)C (stereo not shown) [Example 87],A (IC50 value for the indicated mutant below about 100 nM)
100 to 500,< 100,100 to 500,"C=CC(=O)Nc1cc(Nc2ncc(CCC(=O)OC)c(-c3cn4c5c(cccc35)CCC4)n2)c(OC)cc1N(C)CCN(C)C [Example 39, methyl 3-(2-((5-acrylamido-4-((2-(dimethylamino)ethyl)(methyl)amino)-2-methoxyphenyl)amino)-4-(5,6-dihydro-4H-pyrrolo[3,2,1-ij]quinolin-1-yl)pyrimidin-5-yl)propanoate]",A (IC50 value for the indicated mutant below about 100 nM)
< 100,< 100,< 100,C=CC(=O)Nc1cc(Nc2ncc(-c3cnn(CC)c3)c(-c3cn4c5c(cccc35)CCC4)n2)c(OC)cc1N(C)CCN(C)C [Example 99],A (IC50 value for the indicated mutant below about 100 nM)
< 100,< 100,100 to 500,"C=CC(=O)Nc1cc(Nc2nccc(-c3c(N4CC[C@@H](O)C4)n4c5c(cccc35)CCC4)n2)c(OC)cc1N(C)CCN(C)C [Example 74, (R)-N-(2-((2-(dimethylamino)ethyl)-(methyl)amino)-5-((4-(2-(3-hydroxypyrrolidin-1-yl)-5,6-dihydro-4H-pyrrolo[3,2,1-ij]quinolin-1-yl)pyrimidin-2-yl)amino)-4-methoxyphenyl)-acrylamide]",A (IC50 value for the indicated mutant below about 100 nM)
< 100,< 100,100 to 500,"C=CC(=O)Nc1cc(Nc2ncc(CC)c(-c3cn4c5c(cccc35)CCC4)n2)c(OC)cc1N(C)CCN(C)C [Example 2, N-(5-((4-(5,6-dihydro-4H-pyrrolo[3,2,1-ij]quinolin-1-yl)-5-ethylpyrimidin-2-yl)amino)-2-((2-(dimethylamino)ethyl)(methyl)amino)-4-methoxyphenyl)acrylamide]",A (IC50 value for the indicated mutant below about 100 nM)
< 100,< 100,< 100,"C=CC(=O)Nc1cc(Nc2ncc(CCCOC)c(-c3cn4c5c(cccc35)CCC4)n2)c(OC)cc1N(C)CCN(C)C [Example 33, N-(5-((4-(5,6-dihydro-4H-pyrrolo[3,2,1-ij]quinolin-1-yl)-5-(3-methoxypropyl)pyrimidin-2-yl)amino)-2-((2-(dimethylamino)ethyl)(methyl)amino)-4-methoxyphenyl)acrylamide]",A (IC50 value for the indicated mutant below about 100 nM)
100 to 500,100 to 500,500 to 1000,C=CC(=O)Nc1cc(Nc2ncc(N3CCCC3)c(-c3cn4c5c(cccc35)CCC4)n2)c(OC)cc1N(C)CCN(C)C [Example 106],A (IC50 value for the indicated mutant below about 100 nM)
